Measured values: US12697328B2, “Methods for treating metastasis with cathepsin C inhibitors” (Shanghai Institute of Nutrition and Health, Chinese Academy …, priority 2020, dated 2026)

Assays:
IL-1β = IL-1β secretion of neutrophils pre-treated with CM of SCP28 cancer cells (ELISA); format: cell-based; conditions: human neutrophils pre-treated with CM of SCP28 with CTSC overexpressed; FIG. 7H
Method: ELISA kits were used to assay the levels of human IL-1β (88-7621-88, ThermoFisher), mouse IL-1β (432604, Biolegend), mouse IL6 (88-7064-88, ThermoFisher), mouse CCL3 (88-56013-88, ThermoFisher) in cell culture supernatants or sera according to the manufacturer's instruction. Briefly, 96-well MaxiSorp™ ELISA Plates (44-2404, ThermoFisher) was coated with capture antibody overnight at 4° C. in coating buffer (15 mM of Na2CO3, 35 mM of NaHCO3, at pH 9.6). After three washes in PBS, the wells were blocked with 5% BSA in PBS for 45 min at room temperature. Then, 100 μl of cell culture supernatants or sera and standard samples were added into the wells and incubated for 2 h at room temperature, and the plates were washed three times with washing buffer (1% BSA, 0.05% Tween-20 in PBS). Next, biotin-conjugated detection antibody in 2.5% BSA was added into the wells and incubated for 2 h at room temperature. After three washes with washing buffer, HRP-streptavidin was incubated for 45 min at room temperature. Then, signals were detected using TMB solution and read at 450 nm.

4T1 breast cancer cells = assay: Tumor sphere formation of 4T1 cells in medium of neutrophils pre-treated with 4T1 CM; format: cell-based; conditions: 4T1 cells in medium of neutrophils pre-treated with CM of 4T1; vs untreated control; FIG. 10F
[1] = system: CTSC-overexpressing AT3 cancer cells; assay: Brensocatib treatment of mice after orthotopic injection of CTSC-overexpressing AT3 cancer cells; format: in vivo, C57/BL6 mice; conditions: brensocatib 5 mg/kg orally twice daily
Method: Female BALB/c and athymic mice aged 6-10 weeks were used in all animal experiments. […] For EdU labeling assays, nude mice were intravenously injected with 2×10^5 cancer cells, followed by intraperitoneal (i.p.) injection of 100 ng/mouse EdU (ThermoFisher, C10640) 24 h before lung harvest. […] For Sivelestat or DNase I treatment, mice were i.p. injected with Sivelestat (50 mg/kg) or DNase I (5 mg/kg) 2 h before cancer cell injection, followed by daily injection of the reagents for 9 days, and then maintenance shots twice a week. For GSK484 treatment, mice were treated with GSK484 (20 mg/kg, i.p. daily shots for 20 days from day 7, and then maintenance shots every two days) following orthotopic injection of AT3 or 4T07 cells. For IL-1b blocking or IL6R/CCR1 inhibition assays, mice were orthotopically inoculated with 5×10^4 AT3 and treated with i.p. administration of IgG or the IL-1β blocking antibody (100 μg per mouse), or the IL6R blocking antibody (100 μg per mouse) and the CCR1 inhibitor BX471 (20 mg/kg), every two days from day 7 until the mice were sacrificed. For brensocatib treatment, BALB/c mice were orthotopically inoculated with 1×10^5 4T1 cells, and C57/BL6 mice were orthotopically inoculated with 2×10^5 AT3. Vehicle controls (0.5% HPMC, 0.1% Tween 80 in 0.1 M citrate buffer, pH 3) and brensocatib (5 mg/kg) were administered orally twice daily until the mice were sacrificed. Orthotopic tumors were surgically removed at the size of about 1 cm^3. […] For TSP-1 degradation assays, mice were i.p. injected with GSK484 (20 mg/kg) 2 h before cancer cell injection and followed by daily treatment. Then, the lungs were perfused with 50 ml of pre-chilled PBS through the right ventricle until they were cleared of blood at 72 h post injection of 3×10^6 AT3 or 4T07 cells. BLI was acquired with NightOWL II LB983 Imaging System (Bert-hold) and IVIS Spectrum CT (PerkinElmer). All animal studies were conducted according to the guidelines for the care and use of laboratory animals and were approved by the Institutional Animal Care and Use Committee of Shanghai Institute of Nutrition and Health.

lung cancer cells A549 = assay: NET-promoted tumor sphere formation, lung cancer; format: cell-based; conditions: neutrophil medium, CM with or without brensocatib, FIG. 11L
Method: (§1) To test the therapeutic effects of brensocatib in different cancer types in vitro, the ability of brensocatib to inhibit NET-promoted tumor sphere formation is investigated. The neutrophils are cultured with conditioned medium from tumor cells of colon cancer, liver cancer, lung cancer, gastric cancer and pancreatic cancer with or without brensocatib treatment to activate NETosis, and then the neutrophil medium was used in tumor sphere formation of these cancer cells to analyze the effect of neutrophil medium to facilitate tumor cell growth. The amount of tumorsphere in each sample is then determined by imaging.

gastric cancer cells AGS = assay: NET-promoted tumor sphere formation, gastric cancer; format: cell-based; conditions: neutrophil medium, CM with or without brensocatib, FIG. 11M
Method: as §1

[2] = system: hepatocellular carcinoma cells HUH7; assay: NET-promoted tumor sphere formation, liver cancer; format: cell-based; conditions: neutrophil medium, CM with or without brensocatib, FIG. 11N
Method: as §1

[3] = system: pancreatic cancer cells KP4; assay: Mouse xenograft, pancreatic tumor cells by spleen injection (liver metastasis); format: in vivo; conditions: nude mice, FIG. 12C
Method: A series of mouse xenograft studies are conducted by injecting liver and pancreatic tumor cells into nude mice by spleen injection. Then the mice are treated by brensocatib, and the growth of the tumors in liver is observed.

| Compound | IL-1β levels (secretion) of neutrophils (IL-1β) | tumor sphere formation (4T1 breast cancer cells) | survival rate ([1]; FIG. 10J) | circulating levels of IL-1β ([1]; FIG. 10K) | circulating NETs ([1]; FIGS. 10G-I) | lung metastases ([1]; FIGS. 10G-I) | lung metastatic nodule formation ([1]; FIGS. 10G-I) | neutrophil migration ([1]; FIGS. 10G-I) | NET-promoted tumor sphere formation (in vitro tumor growth) (lung cancer cells A549) | NET-promoted tumor sphere formation (in vitro tumor growth) (gastric cancer cells AGS) | NET-promoted tumor sphere formation (in vitro tumor growth) [2] | metastatic growth of pancreatic cancer cells KP4 in liver [3] |
| --- | --- | --- | --- | --- | --- | --- | --- | --- | --- | --- | --- | --- |
| CC(C)(C)C(=O)Oc1ccc(S(=O)(=O)Nc2ccccc2C(=O)NCC(=O)O)cc1 [Silvelestat] | reduces |  |  |  |  |  |  |  |  |  |  |  |
| Cn1c(=O)oc2ccc(-c3ccc(C[C@@H](C#N)NC(=O)[C@@H]4CNCCCO4)cc3)cc21 [brensocatib, (2S)—N-{(1S)-1-cyano-2-[4-(3-methyl-2-oxo-2,3-dihydro-1,3-benzoxazol-5-yl)phenyl]ethyl}-1,4-oxazepane-2-carboxamide] |  | suppressed | significant increase | decrease | Decreases | Decreases | Decreases | Decreases | inhibit in vitro tumor growth | inhibit in vitro tumor growth | inhibit in vitro tumor growth | significantly inhibits |
